The source of these data is the supplement of paper PMC11061612.

Common to all, as to assay: Bliss excess, mean over the matrix (fraction); higher = more synergy
Assay [1] deals with AMO-1 (Plasma Cell Myeloma). Put shortly: (§1)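 Cell lines grown in DMEM/F12 or RPMI with 10% FBS were plated in 1536-well plates and held 24 hours at 37°C, 5% CO2 before 72 hours of exposure to two-drug dose matrices, with DMSO typically at 0.2%. CellTiter-Glo 2.0 luminescence gave viability, which was converted to inhibition. Vehicle wells were set to 0 and blank wells to 1. Combination Emax is the second-highest inhibition in the matrix, and Bliss excess is the observed combination effect minus the expected EA + EB − EA·EB, where EA and EB are the single-agent effects.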

The subject of assay [2] is BT-549 (Breast Carcinoma). Put shortly:
as §1

Assay [3] has as its system Ca9-22 (Head and Neck Carcinoma). Put shortly:
as §1

For assay [4], the system named is Caov-4 (Ovarian Carcinoma). Put shortly:
as §1

The test system of a further assay is D-263MG (Glioblastoma). A digest of the protocol: as §1
Assay [5] concerns EFM-19 (Breast Carcinoma). Put shortly:
as §1

In the next assay the test system is EW-24 (Ewing's Sarcoma). Put shortly: as §1
Assay [6] relates to EoL-1-cell (Acute Myeloid Leukemia). Put shortly: as §1
For assay [7], the system named is Hs-766T (Pancreatic Carcinoma). A digest of the protocol:
as §1

Assay [8] relates to KYSE-450 (Esophageal Squamous Cell Carcinoma). Put shortly:
as §1

Assay [9] relates to LU-65 (Non-Small Cell Lung Carcinoma). A digest of the protocol:
as §1

Assay [10] has as its system MIA-PaCa-2 (Pancreatic Carcinoma). A digest of the protocol: as §1
The subject of assay [11] is MLMA (Other Blood Carcinomas). A digest of the protocol:
as §1

In assay [12] the test system is NCI-H358 (Lung Adenocarcinoma). Put shortly: as §1
The subject of assay [13] is PANC-04-03 (Pancreatic Carcinoma). Put shortly: as §1
Assay [14] has as its system RF-48 (B-Cell Non-Hodgkin's Lymphoma). A digest of the protocol:
as §1

Assay [15] concerns SW13 (Other Solid Carcinomas). Put shortly:
as §1

The subject of a further assay is TGW (Neuroblastoma). A digest of the protocol:
as §1

A further assay relates to TK10 (Kidney Carcinoma). A digest of the protocol: as §1
For a further assay, the system named is UACC-62 (Melanoma). A digest of the protocol:
as §1

For the compound `CN(CCO)CC[C@H](CSc1ccccc1)Nc1ccc(S(=O)(=O)NC(=O)c2ccc(N3CCC([C@@H](O)c4ccccc4-c4ccc(Cl)cc4)CC3)cc2)cc1S(=O)(=O)C(F)(F)F` [AZD4320] + C1CN(CCC1(C(=O)N[C@@H](CCO)C2=CC=C(C=C2)Cl)N)C3=NC=NC4=C3C=CN4 [Capivasertib] (first compound max 1 µM, 7x7, partner max 3 µM), the Bliss excess in [1] is -0.0045; in [2], -0.0094; in [3], -0.0055; in [4], -0.0357; with D-263MG (Glioblastoma) it was -0.0512; in assay [5], -0.0292. The Bliss excess was -0.0378 with EW-24 (Ewing's Sarcoma); 0.0007 in assay [6]; -0.0492 in assay [7]; -0.0449 in assay [8]; -0.0108 in assay [9]; -0.0476 in [10]. The Bliss excess in assay [11] was 0.0534; in [12], -0.0172; in [13], -0.0875; in [14], -0.0097; in [15], -0.0326; in the assay on TGW (Neuroblastoma) it was 0.0065. For the same compound, the Bliss excess was -0.0676 in the assay on TK10 (Kidney Carcinoma) and -0.0584 in the assay with UACC-62 (Melanoma).

As for `CN(CCO)CC[C@H](CSc1ccccc1)Nc1ccc(S(=O)(=O)NC(=O)c2ccc(N3CCC([C@@H](O)c4ccccc4-c4ccc(Cl)cc4)CC3)cc2)cc1S(=O)(=O)C(F)(F)F` [AZD4320] + C=CCn1c(=O)c2cnc(Nc3ccc(N4CCN(C)CC4)cc3)nc2n1-c1cccc(C(C)(C)O)n1 [AZD1775] (first compound max 1 µM, partner max 1 µM), the Bliss excess in assay [1] was 0.0119; in assay [2], 0.0109; in [3] it was 0.0335; in assay [4] it was -0.0248; in the assay on D-263MG (Glioblastoma), -0.0277; in [5] it was 0.0433. Also, the Bliss excess in the assay on EW-24 (Ewing's Sarcoma) is 0.119; in assay [6] it was -0.0146; in [7], -0.0431; in [8], -0.0535; in assay [9] it was -0.0162; in assay [10], -0.0176. For the same compound, the Bliss excess was 0.0379 in assay [11]; -0.0765 in [12]; -0.048 in [13]; 0.0896 in [14]; -0.02 in assay [15]; -0.008 in the assay on TGW (Neuroblastoma). Moreover, the values for the Bliss excess in the assay with TK10 (Kidney Carcinoma) and in the assay on UACC-62 (Melanoma) were 0.0515 and 0.025, respectively.

Regarding `CN(CCO)CC[C@H](CSc1ccccc1)Nc1ccc(S(=O)(=O)NC(=O)c2ccc(N3CCC([C@@H](O)c4ccccc4-c4ccc(Cl)cc4)CC3)cc2)cc1S(=O)(=O)C(F)(F)F` [AZD4320] + CC(=O)O[C@H]1C(=O)[C@@]2(C)[C@H]([C@H](OC(=O)c3ccccc3)[C@]3(O)C[C@H](OC(=O)[C@H](O)[C@@H](NC(=O)c4ccccc4)c4ccccc4)C(C)=C1C3(C)C)[C@]1(OC(C)=O)CO[C@@H]1C[C@@H]2O [Paclitaxel] (first compound max 1 µM, 7x7, partner max 3 µM), the Bliss excess is 0.0173 in assay [1]; 0.0578 in assay [2]; 0.037 in assay [3]; 0.0863 in [4]; 0.102 with D-263MG (Glioblastoma); 0.0898 in assay [5]. In addition, the Bliss excess in the assay on EW-24 (Ewing's Sarcoma) was 0.17; in assay [6], -0.0057; in assay [7] it was -0.0002; in assay [8], 0.0129; in assay [9] it was 0.0224; in assay [10], 0.0064. In addition, the Bliss excess in assay [11] was 0.0254; in assay [12], 0.0117; in [13] it was -0.0033; in assay [14], -0.0029; in the assay with TGW (Neuroblastoma), -0.0472; in the assay with TK10 (Kidney Carcinoma), 0.0195. Besides, in the assay with UACC-62 (Melanoma), the Bliss excess came to 0.0953.

As to `CN(CCO)CC[C@H](CSc1ccccc1)Nc1ccc(S(=O)(=O)NC(=O)c2ccc(N3CCC([C@@H](O)c4ccccc4-c4ccc(Cl)cc4)CC3)cc2)cc1S(=O)(=O)C(F)(F)F` [AZD4320] + CCN(CCO)CCCOc1ccc2c(Nc3cc(CC(=O)Nc4cccc(F)c4)[nH]n3)ncnc2c1 [AZD2811] (first compound max 1 µM, 7x7, partner max 1 µM), the Bliss excess in [1] is -0.0102; in [2], 0.0218; in assay [3], 0.0591; in assay [4], -0.0141; in the assay with D-263MG (Glioblastoma) it was 0.0665; in assay [5], 0.147. For the same compound, the Bliss excess was 0.0538 in the assay with EW-24 (Ewing's Sarcoma); -0.002 in assay [6]; -0.0485 in assay [7]; -0.0273 in assay [8]; -0.0437 in assay [9]; 0.0532 in assay [10]. The Bliss excess in [11] is 0.0437; in [12], -0.0337; in [13] it was -0.0435; in assay [14] it was 0.0643; in [15], -0.0152; with TGW (Neuroblastoma) it was -0.032. In addition, the Bliss excess with TK10 (Kidney Carcinoma) was -0.0199; in the assay with UACC-62 (Melanoma), 0.0105.

As for `CN(CCO)CC[C@H](CSc1ccccc1)Nc1ccc(S(=O)(=O)NC(=O)c2ccc(N3CCC([C@@H](O)c4ccccc4-c4ccc(Cl)cc4)CC3)cc2)cc1S(=O)(=O)C(F)(F)F` [AZD4320] + C[C@@H]1COCCN1C2=NC(=NC(=C2)C3(CC3)[S@](=N)(=O)C)C4=C5C=CNC5=NC=C4 [AZD6738] (first compound max 1 µM, 7x7, partner max 10 µM), the Bliss excess is -0.0239 in assay [2]; 0.0001 in assay [3]; -0.027 in assay [4]; -0.0424 in the assay with D-263MG (Glioblastoma); -0.0511 in assay [5]; 0.0267 in the assay on EW-24 (Ewing's Sarcoma). In addition, the Bliss excess is 0.0252 in assay [6]; -0.108 in assay [7]; -0.0496 in assay [8]; -0.0092 in assay [9]; -0.045 in [10]; 0.0229 in assay [11]. Further, the Bliss excess was -0.0195 in [12]; -0.0714 in assay [13]; 0.0017 in assay [14]; -0.0208 in [15]; -0.0629 in the assay with TGW (Neuroblastoma); -0.0797 in the assay with TK10 (Kidney Carcinoma). Further, the Bliss excess in the assay on UACC-62 (Melanoma) is -0.0317.

Take `CN(CCO)CC[C@H](CSc1ccccc1)Nc1ccc(S(=O)(=O)NC(=O)c2ccc(N3CCC([C@@H](O)c4ccccc4-c4ccc(Cl)cc4)CC3)cc2)cc1S(=O)(=O)C(F)(F)F` [AZD4320] + C[C@@H](Nc1cc(F)cc(F)c1)c1cc(C(=O)N(C)C)cc2c(=O)cc(N3CCOCC3)oc12 [AZD8186] (first compound max 1 µM, 7x7, partner max 3 µM): the Bliss excess is 0.0318 in assay [1]; -0.0156 in [2]; -0.0194 in assay [3]; 0.0112 in [4]; 0.0288 in the assay with D-263MG (Glioblastoma); -0.0426 in [5]. Moreover, the Bliss excess was -0.0214 with EW-24 (Ewing's Sarcoma); 0.0255 in assay [6]; 0.0113 in assay [7]; -0.07 in [8]; -0.0216 in assay [9]; -0.0084 in assay [10]. The Bliss excess in assay [11] was 0.0859; in [12], -0.0461; in assay [13] it was 0.0202; in assay [14] it was 0.0072; in assay [15], 0.0064; in the assay on TGW (Neuroblastoma), -0.027. For the same compound, the Bliss excess was -0.032 in the assay with TK10 (Kidney Carcinoma) and 0.102 in the assay on UACC-62 (Melanoma).

On to `CN(CCO)CC[C@H](CSc1ccccc1)Nc1ccc(S(=O)(=O)NC(=O)c2ccc(N3CCC([C@@H](O)c4ccccc4-c4ccc(Cl)cc4)CC3)cc2)cc1S(=O)(=O)C(F)(F)F` [AZD4320] + Cc1cc2ncnn2cc1Nc1ncc2c(n1)n(C1CCOCC1)c(=O)n2C [AZD7648] (first compound max 1 µM, 7x7, partner max 10 µM), for which the Bliss excess in [1] is -0.0243; in [2] it was -0.0213; in assay [3], -0.0039; in [4], -0.0277; in the assay with D-263MG (Glioblastoma), -0.0192; in [5] it was -0.0326. Further, the Bliss excess was -0.0171 with EW-24 (Ewing's Sarcoma); 0.0476 in assay [6]; -0.0842 in assay [7]; -0.0383 in assay [8]; -0.007 in assay [9]; -0.0636 in [10]. In addition, the Bliss excess was 0.0082 in [11]; -0.0394 in assay [12]; -0.0556 in assay [13]; -0.0205 in assay [14]; -0.0371 in assay [15]; 0.0125 in the assay with TGW (Neuroblastoma). Also, the Bliss excess in the assay on TK10 (Kidney Carcinoma) was -0.014; in the assay on UACC-62 (Melanoma), -0.0329.
